In one test the target is T1, ZAP-70 (Homo sapiens, UniProt P43403).
T1 construct: endogenous in cells; host or cells: cell lysate
T1 sequence (P43403 1-619): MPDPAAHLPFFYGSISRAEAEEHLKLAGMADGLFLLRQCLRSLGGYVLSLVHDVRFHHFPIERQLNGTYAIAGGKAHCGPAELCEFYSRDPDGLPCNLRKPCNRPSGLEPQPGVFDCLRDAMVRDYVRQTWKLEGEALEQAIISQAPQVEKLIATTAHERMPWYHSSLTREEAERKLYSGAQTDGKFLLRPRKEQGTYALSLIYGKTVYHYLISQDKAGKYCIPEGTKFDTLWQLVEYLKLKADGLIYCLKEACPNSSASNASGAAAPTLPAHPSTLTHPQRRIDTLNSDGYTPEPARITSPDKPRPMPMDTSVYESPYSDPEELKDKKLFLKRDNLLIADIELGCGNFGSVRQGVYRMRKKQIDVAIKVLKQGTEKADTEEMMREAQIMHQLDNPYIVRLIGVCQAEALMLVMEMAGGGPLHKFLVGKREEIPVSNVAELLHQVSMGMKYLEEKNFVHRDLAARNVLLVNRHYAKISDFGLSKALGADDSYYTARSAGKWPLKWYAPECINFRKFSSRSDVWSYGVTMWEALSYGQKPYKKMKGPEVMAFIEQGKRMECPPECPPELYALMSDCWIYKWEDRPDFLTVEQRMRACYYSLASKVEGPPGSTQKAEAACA
In words: ZAP-70 kinobeads assay. The format is binding. As to conditions: cell lysate. In outline: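 Competition binding: compounds at various concentrations incubated with cell lysate plus affinity matrix bearing immobilized aminopyrido-pyrimidine ligand 24. ZAP-70 retained on beads eluted and quantified by specific-antibody dot blot with infrared detection.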

Test [1] has as its system Calcium Ion Release in Cells. The experiment in a line: calcium release assay (measurement of calcium ion release in cells). As to conditions: calcium release assay as described in WO-A 2009/080638. The format is cell-based.

The results in this text go back to patent US20120142667A1, “PYRIMIDINE DERIVATIVES AS ZAP-70 INHIBITORS” (priority 2009, published 2012).

A value given as a limit tells only on which side of the number the result lay.

By IC50 is commonly meant the concentration needed to halve the response being measured.

As to `COc1ccc(Nc2nc(Nc3ccc(OCCN)cc3F)ncc2Cl)c(NS(C)(=O)=O)c1` [Example 69, N-(2-(2-(4-(2-aminoethoxy)-2-fluorophenylamino)-5-chloropyrimidin-4-ylamino)-5-methoxyphenyl)methanesulfonamide], the results for the IC50 (against ZAP-70; in test [1]) were at most 100 nM and at most 1000 nM, respectively.
